Measured values reported in patent publication US6352718B1, “Vasopressin antagonist formulation and process” (American Cyanamid Company, priority 1999, dated 2002).

Assay: Solubility in orally acceptable oils and aqueous systems
Type: physicochemical
Details: in conventional, orally acceptable oils, such as safflower or sesame seed oils, and in aqueous systems

solubility: highly insoluble
SMILES: Cc1ccc(F)cc1C(=O)Nc1ccc(C(=O)N2Cc3cccn3Cc3ccccc32)c(Cl)c1 [VPA-985, N-[4-(5H-pyrrolo[2,1-c][1,4]benzodiazepin-10(11H)ylcarbonyl)-3-chlorophenyl]-5-fluoro-2-methylbenzamide]
